From patent US20100256145A1, “USE OF KCNQ POTASSIUM CHANNEL OPENERS FOR REDUCING SYMPTOMS OF OR TREATING DISORDERS OR CONDITIONS WHEREIN THE DOPAMINERGIC SYSTEM IS DISRUPTED” (H. LUNDBECK A/S, priority 2007, published 2010) come the findings set out here.

Marks after values point to notes of the source that are not given here.

The test system of data set [1] is social behaviours in the Mutual Resident Intruder rat test. Kind of data set: Mutual Resident Intruder rat test. The conditions noted are these: for % of time Agonistic behaviour: sum of defensive and aggressive behaviour.
Method: (§1) Subjects. 5 week old male Wistar rats (Harlan, Germany) were used. The animals were housed in groups of four animals per cage and kept under a 12 h/12 h light dark rhythm (start of the dark phase at 2:00 p.m., CET), at 20° C. room temperature and 60% humidity. During the whole study, standard diet and tap water was provided ad libitum.
(§2) Experimental procedure. […] Therefore, half of the cage is the home territory of each animal. At test time, the wall is removed from the cage so that the animals can interact with each other for 15 minutes. Both animals are from the same test group. The cage is illuminated by dim red light. The test starts 1 hour after beginning of the dark phase. All animals are marked individually by means of black symbols on their back. Behaviour is registered by video. Each animal is tested once.
(§3) Analyses. In both the TE test and the MRI test, the portion of time (%) spent in non-social, friendly, defensive, aggressive or agonistic (sum of defensive and aggressive behaviour) behaviour was compared across the experimental groups against the relevant control group by means of Analysis of Variance (ANOVA) (one-factor).
Data set [2] addresses T1, noradrenergic α1A receptor (UniProt P18130).
T1 sequence (P18130 1-466): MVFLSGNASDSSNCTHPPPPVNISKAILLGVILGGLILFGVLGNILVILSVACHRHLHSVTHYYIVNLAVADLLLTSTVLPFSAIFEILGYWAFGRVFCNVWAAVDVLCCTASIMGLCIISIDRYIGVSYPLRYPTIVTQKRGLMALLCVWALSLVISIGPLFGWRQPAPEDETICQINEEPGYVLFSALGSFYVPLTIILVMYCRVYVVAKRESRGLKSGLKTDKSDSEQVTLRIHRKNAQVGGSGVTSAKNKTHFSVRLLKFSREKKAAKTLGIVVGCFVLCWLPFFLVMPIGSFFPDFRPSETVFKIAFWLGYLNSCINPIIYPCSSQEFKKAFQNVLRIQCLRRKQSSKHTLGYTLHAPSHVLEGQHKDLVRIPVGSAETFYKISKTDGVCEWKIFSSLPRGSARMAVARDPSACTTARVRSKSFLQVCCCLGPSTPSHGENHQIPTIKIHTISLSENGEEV
Kind of data set: 3H-Prazosin binding assay, receptor expressed in baby hamster kidney cells. The conditions noted are these: read-out: Ki, affinity towards noradrenergic α1A receptors.

In data set [3] the test system is basal locomotor activity. In words: Basal locomotor activity inhibition (motility inhibition) in the rat. The format is in vivo. To be noted: basal locomotor activity without stimulant (sedative properties), std. dev. in brackets.
Method: Subjects. Male Wistar rats (Taconic, Denmark) weighing 170-240 g are used. The animals are housed under a 12-hr light/dark cycle under controlled conditions for regular in-door temperature (21±2° C.) and humidity (55±5%) with food and tap water available ad libitum.
Experimental procedure. The experiment is made in normal light conditions in an undisturbed room. […] Immediately after injection of the stimulant, the rats are placed individually in the test cages that are placed in a U-frame, equipped with 4 infrared light sources and photocells. The light beams cross the cage 4 cm above the cage floor. Recording of a motility count requires interruption of adjacent light beams, thus avoiding counts induced by stationary movements of the rat. Motility (counts) is recorded for a period of 2 hours. […] The 100 percent effect of stimulant drug is accordingly calculated to be total motility counts minus baseline. […] The percent responses are converted to percent inhibition from which ED50 values are calculated by means of log-probit analyses. In a parallel set of data, the potential sedative properties (exemplified by basal locomotor activity inhibition) of the test compounds are evaluated using essentially the same procedure with the exception of not administering the stimulant drug at the initiation of locomotor assessment.
Data set [4] concerns social behaviours in the rat Tetradic Encounter test. Kind of data set: Rat Tetradic Encounter test. The conditions noted are these: for % of time Agonistic behaviour: sum of defensive and aggressive behaviour.
Method: as §1, §2, §3
The subject of data set [5] is choice of the large-but-delayed reward (impulsivity). In words: Rat T-maze procedure: large-but-delayed vs small-but-immediate reward. It is filed as in vivo. The conditions noted are these: juvenile Wistar rats. The procedure:
Subjects. male Wistar AF rats (28-41 days old) (Centre d′Elevage René Janvier, France) were used. […] During the whole study, tap water was provided ad libitum. Food was restricted to 5-10 g/day/animal in order to maintain animals at 65-75% of their free feeding weight
Experimental procedure. The experiments were performed in two identical T-maze apparatus constructed from opaque grey plastic tubing and consisting of a starting runway (30 cm long) and two arms (35 cm long) each leading to a rectangular black plastic goal box (18 cm large, 30 cm wide, 10 cm high). Removable grey plastic guillotine doors could be inserted into the vertical clefts, situated at the entry of the starting runway and at each end of the arms. One of the goal-boxes (left or right, depending on the rats) was constantly provided with a large reward, the other with a small reward. Large and small rewards consisted, respectively, of 5 and 1 pellets (20 mg, Technical & Scientific Equipment GmbH, Germany). The pellets were placed in a translucent food-cup before each trial.
First phase: habituation. Animals were first subjected to two 5-min sessions of habituation. The rat was gently introduced in the starting runway, which then was closed with a guillotine door inserted in the cleft (referred to as c0 in FIG. 1). The animal was allowed to freely explore the apparatus and to eat food rewards placed in the food cups.
Second phase: pretraining. After a door was placed in the cleft c2 near each goal-box, the rat was introduced in the starting runway. When it entered one of the two arms, a door was inserted behind it in the cleft c1 near the choice area and the door placed in cleft c2 was removed. As soon as the animal entered the goal-box, the door was placed again in the cleft c2. The rat was removed from the goal-box as soon as the pellets were eaten (usually within less than 1 min). The animal was then returned to its home cage for an intertrial interval of 2 to 3 min. Each rat was submitted one to five times/day to five trials sessions in this procedure. Training was initiated when the rat selected the arm giving access to the large reward in more than 14 out of 15 trials.
Third phase: training. Rats underwent one to five times/day five trials training sessions during which a delay was introduced before access to the large reward. After a door was placed in the cleft c2 near each goal-box, the rat was introduced in the starting runway. When it entered one of the two arms, a second door was inserted behind it in the cleft c1 near the choice area, so that rat selecting the arm leading to the large reward could be detained in this arm for a period (referred to as the waiting delay) before having access to the reinforcement. Otherwise, if the animal selected the arm leading to the small reward, the door placed in the cleft c2 was immediately opened, allowing the animal to enter the goal-box. At the beginning of training, the waiting delay was 30 sec. Then, if the percentage of choices of the large and delayed reward remained high (i.e. ≧40%) for more than six sessions, it was increased to 45 sec, and if necessary to 60 sec, 90 sec and finally 120 sec. Drug testing began when the animal selected the large and delayed reward in two trials out of five (or less) in two consecutive sessions and in one trial out of five (or less) in the following session.
Drug testing was conducted over six consecutive test-sessions of five trials each, during which the access to the large reward was preceded by the waiting delay. Test sessions were: Two control pre-drug sessions: control pre-drug session 1 and control pre-drug session 2; Two drug sessions: drug session 1 and drug session 2; Two control post-drug sessions: control post-drug session 1 and control post-drug session 2.

Where [6] appears, read: 2 mg/kg s.c. 30 min before test.
Setting [7] is: 10 mg/kg s.c. 30 min before test.

Take `CCOC(=O)Nc1ccc(NCc2ccc(F)cc2)cc1N` [Compound 1, reference compound]: in data set [1] (setting [6]), the “% of time Aggressive behaviour” value is reported as 16.1 % of time, the “% of time Defensive behaviour” value is 16.3 % of time, the “% of time Friendly behaviour” value is 3.4 % of time and the “% of time Non-social behaviour” value is recorded as 64.2 % of time. Also, the “% of time Agonistic behaviour” value in data set [1] (setting [6]) is listed as 32.4 % of time. Also, in data set [1] (setting [7]), the “% of time Aggressive behaviour” value was 4.2*** % of time, the “% of time Defensive behaviour” value was 3.6*** % of time, the “% of time Friendly behaviour” value is listed as 4.9* % of time and the “% of time Non-social behaviour” value was 87.3*** % of time. For the same molecule, the “% of time Agonistic behaviour” value in data set [1] (setting [7]) was 7.8*** % of time. Moreover, in data set [2], the inhibitory constant (Ki) (in general, a dissociation constant, usually derived from enzyme kinetics or from competition with a known ligand) is 2000 nM. In data set [3], the “Motility inhibition ED50 (mg/kg) ± std. dev.” value is listed as more than 8.1 mg/kg. In data set [4] (setting [6]), the “% of time Aggressive behaviour” value was 5.2 % of time, the “% of time Defensive behaviour” value is on record as 7.2 % of time, the “% of time Friendly behaviour” value was 21.9 % of time and the “% of time Non-social behaviour” value is listed as 65.7 % of time. Moreover, in data set [4] (setting [6]), the “% of time Agonistic behaviour” value is listed as 12.4 % of time. In addition, in data set [4] (setting [7]), the “% of time Aggressive behaviour” value is recorded as 2.4 % of time, the “% of time Defensive behaviour” value is listed as 3.7* % of time, the “% of time Friendly behaviour” value is listed as 24.7 % of time and the “% of time Non-social behaviour” value is 69.2 % of time. Further, in data set [4] (setting [7]), the “% of time Agonistic behaviour” value is listed as 6.1* % of time. Also, in data set [5] (5 mg/kg s.c. 30 min before the test), the “% Choice of the large but delayed reward on Drug sessions” value stood at 26.7 ± 3.3 %. In addition, in data set [5] (placebo administered before control (pre-drug and post-drug) sessions of the same group), the “% Choice of the large but delayed reward on Control sessions” value is 10.8 ± 2.0%.
